# In publication doi:10.1101/2025.05.02.651913 (bioRxiv, 2025):
# Structures can show the parent of a compound that is named as a salt.
# Tested on: MPXV strain hMPXV/USA/MA001/2022 (Lineage B.1, Clade IIb)
# Format: cell-based, Mpox virus (MPXV)
row,Compound,Duplicate of Duplicate of Hits: No CPE
1,SBI-581 [MC-SBI-581],1
2,"C=CC(=O)Nc1cccc(-c2c(-c3ccccc3)oc3ncnc(N[C@H](CO)c4ccccc4)c23)c1 [MC-EGFR-IN-9, EGFR-IN-9]",1
3,"CN(C)C/C=C/C(=O)Nc1cc2c(Nc3ccc(F)c(Cl)c3)ncnc2cc1O[C@H]1CCOC1.O=C(O)/C=C\C(=O)O.O=C(O)/C=C\C(=O)O [MC-Afatinib (dimaleate), Afatinib (dimaleate)]",1
4,"COc1cc(F)c(F)c(Nc2ccc(I)cc2F)c1NS(=O)(=O)C1(C[C@H](O)CO)CC1 [NKIL-Refametinib (RDEA119, Bay 86-9766), Refametinib]",1
5,"O=C(NOCC(O)CO)c1cc(Br)c(F)c(F)c1Nc1ccc(I)cc1F (stereo not drawn) [NKIL-PD318088, PD318088]",1
6,"O=C(Nc1ccncc1)Nc1ccc(-c2nc(N3CCOCC3)nc(N3C4CCC3COC4)n2)cc1 [MC-PKI-179 (hydrochloride), PKI-179 (hydrochloride)]",1
7,"C=CC(=O)Nc1cc(Nc2nccc(-n3cc(CN(C)C)c(-c4ccccc4)n3)n2)c(OC)cc1N1CCOCC1 [MC-Lazertinib, Lazertinib]",1
8,"CCOc1cc2ncc(C#N)c(Nc3ccc(OCc4cccc(F)c4)c(Cl)c3)c2cc1NC(=O)/C=C/CN(C)C [MC-HKI-357, HKI-357]",1
9,"O=C(Nc1ccc2[nH]nc(-c3ccncc3)c2c1)[C@@H]1CCN(CC(=O)N2CCN(c3ccc(-c4ncccn4)cc3)CC2)C1 [MC-SCH772984, SCH772984]",1
10,"C#Cc1cccc(Nc2ncnc3cc(OCCOC)c(OCCOC)cc23)c1.Cl [MC-Erlotinib (Hydrochloride), Erlotinib (Hydrochloride)]",1
11,JNK-IN-7 [MC-JNK-IN-7],1
12,"C=CC(=O)Nc1cc(C)ccc1Nc1nc(Nc2cc(OC)ncc2C)ncc1C(F)(F)F [MC-CC-90003, CC-90003]",1
13,"C=CC(=O)Nc1cc2c(Nc3ccc(F)c(Cl)c3)ncnc2cc1OCCCN1CCOCC1 [MC-Canertinib, Canertinib]",1
14,"C=CC(=O)Nc1cccc(Oc2nc(Nc3ccc(N4CCN(C)CC4)cc3)nc3ccoc23)c1 [MC-Poseltinib, Poseltinib]",1
15,"COc1cc2ncnc(Nc3cccc(Cl)c3)c2cc1OC [LOPAC-Tyrphostin AG 1478, Tyrphostin AG 1478]",1
16,"Cc1c(CN2CCN(C(=O)[C@H](C)O)CC2)sc2c(N3CCOCC3)nc(-c3cnc(N)nc3)nc12 [NKIL-GDC-0980 (RG7422), Apitolisib]",1
17,"Cc1cccc(/C=N/Nc2cc(N3CCOCC3)nc(OCCc3ccccn3)n2)c1 [MC-Apilimod, Apilimod]",1
18,"COc1cccc(Nc2ncnn3ccc(CN4CC[C@@H](N)[C@H](O)C4)c23)c1 [MC-BMS-690514, BMS-690514]",1
19,"C=CC(=O)Nc1cccc(Oc2nc(Nc3ccc(N4CCN(C)CC4)c(F)c3)nc3[nH]ccc23)c1 [MC-Avitinib, Avitinib]",1
20,"COc1cc2ncnc(Nc3cccc(Br)c3)c2cc1OC [MC-PD153035, PD153035]",1
21,"CC#CC(=O)Nc1ccc2ncnc(Nc3cccc(Br)c3)c2c1 [MC-CL-387785, CL-387785]",1
22,"Cc1cc(C(=O)NOCCO)c(Nc2ccc(I)cc2F)n(C)c1=O [NKIL-AZD8330, AZD8330]",1
23,"Cn1c(=O)c(F)c(Nc2ccc(I)cc2F)c2c(=O)n(C[C@@H](O)CO)cnc21 [NKIL-TAK-733, TAK-733]",1
24,"C=CC(=O)N1CCC[C@H](n2c(=O)n(-c3ccc(Oc4ccccc4)cc3)c3c(N)ncnc32)C1 [MC-ONO-4059 (analog), ONO-4059 (analog)]",1
